SMILES strings stand for the structures.

The assay deals with T1, FNR^PBS (ferredoxin NADP(H) oxidoreductase).
T1 construct: gene petH; native enzyme in phycobilisome-enriched fraction; N-terminal peptides MAAVDKKK (1-8), VPINIFRPK (9-17); not recombinant
The experiment in a line: diaphorase assay, NADPH oxidation at […] nm, Michaelis-Menten fit. Conditions: 0.15 mM DCPIP as acceptor, 50 mM Tris-HCl pH 8, 1 mM Na2EDTA; phycobilisome-enriched fraction, high salt. Format: biochemical, Gracilaria chilensis.

In the case of `NC(=O)C1=CN([C@@H]2O[C@H](COP(=O)(O)OP(=O)(O)OC[C@H]3O[C@@H](n4cnc5c(N)ncnc54)[C@H](OP(=O)(O)O)[C@@H]3O)[C@@H](O)[C@H]2O)C=CC1` [NADPH], the Km is 12.5 ± 1.8 µM.

As usually defined, the Km is the substrate concentration at which the rate is half of its maximum.
